{
  "source": "paper PMC8524670",
  "about": "(Pharmacology Research & Perspectives, 2021)",
  "key": {"[1]": {"biological_target": "rCYP3A4 (Homo sapiens, UniProt P08684)", "sequence (P08684 whole entry)": "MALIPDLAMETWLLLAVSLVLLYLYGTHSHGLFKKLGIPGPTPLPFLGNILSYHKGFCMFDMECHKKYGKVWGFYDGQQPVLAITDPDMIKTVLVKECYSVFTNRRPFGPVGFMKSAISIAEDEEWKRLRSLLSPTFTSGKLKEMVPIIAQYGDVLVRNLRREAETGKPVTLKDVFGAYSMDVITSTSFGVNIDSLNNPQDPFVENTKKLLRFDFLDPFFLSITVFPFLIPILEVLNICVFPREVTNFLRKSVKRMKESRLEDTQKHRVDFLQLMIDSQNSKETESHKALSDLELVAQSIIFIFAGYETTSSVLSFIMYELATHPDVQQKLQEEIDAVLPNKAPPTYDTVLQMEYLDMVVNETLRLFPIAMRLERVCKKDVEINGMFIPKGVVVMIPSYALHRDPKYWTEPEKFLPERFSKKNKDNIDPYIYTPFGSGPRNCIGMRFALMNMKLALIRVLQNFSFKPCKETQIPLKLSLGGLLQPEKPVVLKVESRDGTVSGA", "assay": "CYP phenotyping with recombinant CYPs", "conditions": "1 μM, only rCYP3A4 among 7 rCYPs"}, "[2]": {"biological_target": "T1, OATP1B1 (Homo sapiens, UniProt Q9Y6L6)", "T1 sequence (Q9Y6L6 1-691)": "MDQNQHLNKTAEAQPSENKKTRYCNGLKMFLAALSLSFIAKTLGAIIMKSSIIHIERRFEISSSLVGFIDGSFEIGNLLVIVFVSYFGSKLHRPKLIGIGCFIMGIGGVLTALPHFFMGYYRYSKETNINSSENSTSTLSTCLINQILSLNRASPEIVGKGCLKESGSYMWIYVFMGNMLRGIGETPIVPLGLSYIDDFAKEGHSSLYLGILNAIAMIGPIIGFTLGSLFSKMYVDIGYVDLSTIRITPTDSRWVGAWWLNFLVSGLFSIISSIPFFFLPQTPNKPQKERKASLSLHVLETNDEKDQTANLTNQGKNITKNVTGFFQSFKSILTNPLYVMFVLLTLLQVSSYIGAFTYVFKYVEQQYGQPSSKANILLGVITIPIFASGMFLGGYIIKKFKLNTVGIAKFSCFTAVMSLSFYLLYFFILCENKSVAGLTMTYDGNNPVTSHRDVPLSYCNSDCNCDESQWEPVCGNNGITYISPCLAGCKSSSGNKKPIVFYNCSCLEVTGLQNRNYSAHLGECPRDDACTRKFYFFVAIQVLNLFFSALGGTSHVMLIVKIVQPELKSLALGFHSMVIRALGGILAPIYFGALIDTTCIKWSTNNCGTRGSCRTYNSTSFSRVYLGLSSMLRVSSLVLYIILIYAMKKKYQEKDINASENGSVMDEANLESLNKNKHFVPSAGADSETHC", "assay": "SLC inhibition assay in HEK293 cells", "assay_type": "in vitro ADME", "conditions": "0.05–5 µM"}, "[3]": {"test_system": "CYP2C9", "assay": "CYP induction in human hepatocytes", "assay_type": "in vitro ADME"}, "[4]": {"test_system": "CYP3A", "assay": "Time-dependent CYP inhibition in HLMs", "conditions": "10 µM zanubrutinib, 30 min pre-incubation with HLMs and NADPH"}, "[5]": {"biological_target": "P-gp (Homo sapiens, UniProt P08183)", "sequence (P08183 whole entry)": "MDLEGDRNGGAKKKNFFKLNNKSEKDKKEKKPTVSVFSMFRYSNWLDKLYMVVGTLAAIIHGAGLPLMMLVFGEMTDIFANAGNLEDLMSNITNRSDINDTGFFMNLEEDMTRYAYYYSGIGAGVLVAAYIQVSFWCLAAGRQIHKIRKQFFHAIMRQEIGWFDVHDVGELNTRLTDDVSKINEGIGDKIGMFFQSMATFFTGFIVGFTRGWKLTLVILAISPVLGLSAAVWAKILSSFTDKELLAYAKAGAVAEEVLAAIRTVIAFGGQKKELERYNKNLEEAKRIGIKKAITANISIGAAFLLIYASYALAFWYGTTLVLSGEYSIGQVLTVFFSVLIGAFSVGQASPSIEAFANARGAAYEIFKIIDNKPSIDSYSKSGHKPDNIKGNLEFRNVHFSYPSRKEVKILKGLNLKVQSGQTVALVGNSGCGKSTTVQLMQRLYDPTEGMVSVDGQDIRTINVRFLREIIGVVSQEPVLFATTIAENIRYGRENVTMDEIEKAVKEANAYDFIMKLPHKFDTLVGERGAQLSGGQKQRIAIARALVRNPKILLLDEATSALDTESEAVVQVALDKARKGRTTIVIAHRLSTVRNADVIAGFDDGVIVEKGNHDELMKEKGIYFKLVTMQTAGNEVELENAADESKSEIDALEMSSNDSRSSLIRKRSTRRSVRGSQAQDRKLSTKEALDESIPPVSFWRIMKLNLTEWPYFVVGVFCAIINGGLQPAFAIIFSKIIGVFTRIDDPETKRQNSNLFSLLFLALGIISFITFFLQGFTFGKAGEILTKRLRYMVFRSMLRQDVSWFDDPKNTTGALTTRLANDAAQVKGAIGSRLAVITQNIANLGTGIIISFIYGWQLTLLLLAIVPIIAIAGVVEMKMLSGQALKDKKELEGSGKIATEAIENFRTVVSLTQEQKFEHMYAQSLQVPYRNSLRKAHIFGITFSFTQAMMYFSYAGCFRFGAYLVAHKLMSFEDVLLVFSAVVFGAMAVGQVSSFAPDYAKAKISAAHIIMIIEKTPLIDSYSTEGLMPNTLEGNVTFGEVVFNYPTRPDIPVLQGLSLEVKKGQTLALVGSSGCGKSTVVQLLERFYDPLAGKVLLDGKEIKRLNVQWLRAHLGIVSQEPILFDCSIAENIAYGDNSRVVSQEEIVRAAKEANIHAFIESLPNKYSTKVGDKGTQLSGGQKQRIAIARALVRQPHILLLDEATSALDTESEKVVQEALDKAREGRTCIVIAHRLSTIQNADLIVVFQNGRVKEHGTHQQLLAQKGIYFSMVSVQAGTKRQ", "assay": "P-gp inhibition in Caco-2 cells", "assay_type": "in vitro ADME", "conditions": "up to 10 μM"}, "[6]": {"biological_target": "T2, CYP2C19 (Homo sapiens, UniProt P33261)", "T2 sequence (P33261 whole entry)": "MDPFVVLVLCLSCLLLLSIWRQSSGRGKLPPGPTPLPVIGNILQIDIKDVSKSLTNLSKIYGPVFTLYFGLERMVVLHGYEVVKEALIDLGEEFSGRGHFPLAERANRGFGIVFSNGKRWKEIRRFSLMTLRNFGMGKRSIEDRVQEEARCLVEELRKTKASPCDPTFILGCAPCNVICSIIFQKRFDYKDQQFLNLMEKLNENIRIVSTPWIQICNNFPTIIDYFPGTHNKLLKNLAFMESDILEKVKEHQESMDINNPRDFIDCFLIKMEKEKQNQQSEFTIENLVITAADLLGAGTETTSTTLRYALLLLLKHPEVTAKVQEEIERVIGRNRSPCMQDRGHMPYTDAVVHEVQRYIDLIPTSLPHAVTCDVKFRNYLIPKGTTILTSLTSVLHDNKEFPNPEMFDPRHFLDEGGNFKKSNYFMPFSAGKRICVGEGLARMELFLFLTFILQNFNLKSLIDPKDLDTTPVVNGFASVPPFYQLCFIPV", "assay": "Time-dependent CYP inhibition in HLMs", "conditions": "10 µM zanubrutinib, 30 min pre-incubation with HLMs and NADPH"}, "[7]": {"biological_target": "T3, CYP1A2 (Homo sapiens, UniProt P05177)", "T3 sequence (P05177 1-516)": "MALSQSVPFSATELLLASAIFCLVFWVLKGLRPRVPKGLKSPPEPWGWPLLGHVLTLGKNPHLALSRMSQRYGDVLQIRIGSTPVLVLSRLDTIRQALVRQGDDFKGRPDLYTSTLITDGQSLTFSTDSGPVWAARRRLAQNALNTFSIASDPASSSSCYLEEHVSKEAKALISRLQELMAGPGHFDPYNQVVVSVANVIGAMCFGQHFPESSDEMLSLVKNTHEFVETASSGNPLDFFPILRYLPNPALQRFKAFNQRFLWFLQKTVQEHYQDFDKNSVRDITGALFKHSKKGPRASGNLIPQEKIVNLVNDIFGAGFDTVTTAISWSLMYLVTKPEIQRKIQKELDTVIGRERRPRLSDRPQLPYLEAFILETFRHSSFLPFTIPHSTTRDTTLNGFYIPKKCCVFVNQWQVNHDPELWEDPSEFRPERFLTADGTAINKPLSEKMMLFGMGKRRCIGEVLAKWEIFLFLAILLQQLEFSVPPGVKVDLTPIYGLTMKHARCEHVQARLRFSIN", "conditions": "10 µM zanubrutinib, 30 min pre-incubation with HLMs and NADPH"}, "[8]": {"test_system": "CYP2C19", "conditions": "coadministration of zanubrutinib; cited from earlier work"}, "[9]": {"conditions": "cited from earlier work"}, "[10]": {"assay": "CYP phenotyping in HLMs with chemical inhibitors", "conditions": "1 μM"}, "[11]": {"biological_target": "T4, CYP2B6 (Homo sapiens, UniProt P20813)", "T4 sequence (P20813 1-491)": "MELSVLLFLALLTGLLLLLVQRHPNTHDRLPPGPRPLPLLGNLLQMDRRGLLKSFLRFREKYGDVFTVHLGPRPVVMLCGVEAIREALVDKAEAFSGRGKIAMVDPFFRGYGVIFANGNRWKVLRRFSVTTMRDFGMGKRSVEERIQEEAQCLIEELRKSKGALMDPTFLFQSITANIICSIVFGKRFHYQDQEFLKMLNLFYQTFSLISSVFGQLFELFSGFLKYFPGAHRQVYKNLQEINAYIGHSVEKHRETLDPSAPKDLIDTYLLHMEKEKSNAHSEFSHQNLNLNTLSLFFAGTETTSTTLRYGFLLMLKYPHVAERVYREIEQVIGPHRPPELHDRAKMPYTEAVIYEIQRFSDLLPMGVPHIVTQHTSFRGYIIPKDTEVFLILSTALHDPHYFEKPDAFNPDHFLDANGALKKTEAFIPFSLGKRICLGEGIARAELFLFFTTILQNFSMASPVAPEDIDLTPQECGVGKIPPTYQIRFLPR", "assay": "CYP reversible inhibition in HLMs", "assay_type": "in vitro ADME"}, "[12]": {"test_system": "CYP3A4", "conditions": "coadministration of zanubrutinib; cited from earlier work"}, "[13]": {"biological_target": "T4, CYP2B6", "assay": "Time-dependent CYP inhibition in HLMs", "conditions": "10 µM zanubrutinib, 30 min pre-incubation with HLMs and NADPH"}, "[14]": {"biological_target": "CYP2C9 (Homo sapiens, UniProt P11712)", "sequence (P11712 whole entry)": "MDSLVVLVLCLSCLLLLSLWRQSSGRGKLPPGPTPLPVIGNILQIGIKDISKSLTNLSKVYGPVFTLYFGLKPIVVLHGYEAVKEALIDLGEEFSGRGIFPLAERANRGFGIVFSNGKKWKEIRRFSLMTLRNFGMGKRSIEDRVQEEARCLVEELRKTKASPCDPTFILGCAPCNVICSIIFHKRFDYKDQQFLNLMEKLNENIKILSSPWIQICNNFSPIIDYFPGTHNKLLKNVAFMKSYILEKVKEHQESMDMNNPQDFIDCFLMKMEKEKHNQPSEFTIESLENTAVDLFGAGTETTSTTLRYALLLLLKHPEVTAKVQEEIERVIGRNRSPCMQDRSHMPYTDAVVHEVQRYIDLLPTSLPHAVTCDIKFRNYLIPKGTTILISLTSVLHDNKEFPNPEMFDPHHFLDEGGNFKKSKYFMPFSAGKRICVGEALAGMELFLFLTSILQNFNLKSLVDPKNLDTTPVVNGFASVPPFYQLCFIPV", "assay": "CYP reversible inhibition in HLMs", "conditions": "diclofenac"}, "[15]": {"biological_target": "T2, CYP2C19", "assay": "CYP reversible inhibition in HLMs", "conditions": "S-mephenytoin"}, "[16]": {"test_system": "CYP2C8", "assay": "CYP induction in human hepatocytes", "assay_type": "in vitro ADME"}, "[17]": {"conditions": "DDI basic model value for induction"}, "[18]": {"conditions": "human, cryopreserved human hepatocytes"}, "[19]": {"conditions": "static model term, induction in liver"}, "[20]": {"conditions": "static model term, liver inhibition"}},
  "data": [
    {"smiles": "C=CC(=O)N1CCC([C@@H]2CCNc3c(C(N)=O)c(-c4ccc(Oc5ccccc5)cc4)nn32)CC1", "note": "[zanubrutinib]", "values": [
      {"measurement": "Disappearance of zanubrutinib with recombinant CYP", "setting": "[1]", "result": "remarkable disappearance"},
      {"measurement": "Inhibition of uptake activity", "setting": "[2]", "result": "not inhibited"},
      {"measurement": "R 3", "setting": "[3]; [17]", "result": "[…]"},
      {"measurement": "EC50 at 3 days", "setting": "[3]; [18]", "result": "[…]"},
      {"measurement": "Ch", "setting": "[3]; [19]", "result": "[…]"},
      {"measurement": "Percent loss of enzymatic activity", "setting": "[4]", "result": 19.2, "unit": "%"},
      {"measurement": "P-gp inhibitor status", "setting": "[5]", "result": "not a significant inhibitor of P‐gp"},
      {"measurement": "Percent loss of enzymatic activity", "setting": "[6]", "result": "−4.58", "unit": "%"},
      {"measurement": "Percent loss of enzymatic activity", "setting": "[7]", "result": 8.10, "unit": "%"},
      {"measurement": "Reduction of AUC of CYP2C19 probe omeprazole", "setting": "[8]", "result": 36.5, "unit": "%"},
      {"measurement": "C max (mean steady‐state concentration)", "setting": "[9]; 160 mg BID, dose-escalation study, ref data on file", "result": 338, "unit": "ng/mL"},
      {"measurement": "ka (first‐order absorption rate constant)", "setting": "[9]; estimated from population PK", "result": 0.526},
      {"measurement": "Zanubrutinib remaining", "setting": "[10]; 30-min incubation with HLMs + CYP3A inhibitor ketoconazole 1 µM", "result": 98.9, "unit": "%"},
      {"measurement": "Zanubrutinib remaining", "setting": "[10]; 30-min incubation with HLMs, no inhibitor", "result": 32.8, "unit": "%"},
      {"measurement": "IC50", "setting": "[11]", "result": 121, "unit": "µM"},
      {"measurement": "Ki", "setting": "[11]; Ki, bupropion, Ki = IC50/2", "result": 60.5, "unit": "µM"},
      {"measurement": "Ki", "setting": "[11]; Kiu, bupropion, unbound Ki", "result": 47.8, "unit": "µM"},
      {"measurement": "R1", "setting": "[11]; bupropion, DDI basic model, hepatic", "result": 1.00},
      {"measurement": "Ah", "setting": "[11]; bupropion, static model term, liver inhibition", "result": 1.00},
      {"measurement": "Reduction of AUC of CYP3A probe midazolam", "setting": "[12]", "result": 47.5, "unit": "%"},
      {"measurement": "Percent loss of enzymatic activity", "setting": "[13]", "result": 15.5, "unit": "%"},
      {"measurement": "R1", "setting": "[14]; DDI basic model, hepatic", "result": 1.04},
      {"measurement": "Ah", "setting": "[14]; [20]", "result": 0.96},
      {"measurement": "R1", "setting": "[15]; DDI basic model, hepatic", "result": 1.03},
      {"measurement": "Ah", "setting": "[15]; [20]", "result": 0.97},
      {"measurement": "R 3", "setting": "[16]; [17]", "result": "[…]"},
      {"measurement": "EC50 at 3 days", "setting": "[16]; [18]", "result": "[…]"},
      {"measurement": "Ch", "setting": "[16]; [19]", "result": "[…]"}
    ]}
  ]
}
